Data reported in PubChem BioAssay AID1918958 (Molecular Pharmacology Branch, DTP, NCI, 2023).

Tested on: NCI-H196 complex spheroid viability
Test: Anticancer human tumor NCI-H196 cell line growth inhibition [LSD1];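 also: spheroids exposed to agents for 7 days before readout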;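 as to viability, T/C: 100% = DMSO vehicle control viability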
Settings: for IC50: curve of first compound; for viability, T/C: stronger effect = lower value
How it was run: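 Multicellular complex spheroids of tumor cells with human endothelial cells (HUVEC) and mesenchymal stem cells; the LSD1 inhibitor iadademstat was combined with standard-of-care or investigational agents. Top concentration at or near clinical Cmax, half-log dilutions; final DMSO ≤0.25%.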

[1] = second compound 0.1 µM, first compound 0.000316 µM
[2] = second compound 0.1 µM, first compound 0.001 µM
[3] = second compound 0.1 µM, first compound 0.00316 µM
[4] = second compound 0.1 µM, first compound 0.01 µM
[5] = second compound 0.1 µM, first compound 0.0316 µM
[6] = second compound 0.1 µM, first compound 0.1 µM
[7] = second compound 0.316 µM, first compound 0.000316 µM
[8] = second compound 0.316 µM, first compound 0.001 µM
[9] = second compound 0.316 µM, first compound 0.00316 µM
[10] = second compound 0.316 µM, first compound 0.01 µM
[11] = second compound 0.316 µM, first compound 0.0316 µM
[12] = second compound 0.316 µM, first compound 0.1 µM
[13] = second compound 1 µM, first compound 0.000316 µM
[14] = second compound 1 µM, first compound 0.001 µM
[15] = second compound 1 µM, first compound 0.00316 µM
[16] = second compound 1 µM, first compound 0.01 µM
[17] = second compound 1 µM, first compound 0.0316 µM
[18] = second compound 1 µM, first compound 0.1 µM
[19] = second compound 3.16 µM, first compound 0.000316 µM
[20] = second compound 3.16 µM, first compound 0.001 µM
[21] = second compound 3.16 µM, first compound 0.00316 µM
[22] = second compound 3.16 µM, first compound 0.01 µM
[23] = second compound 3.16 µM, first compound 0.0316 µM
[24] = second compound 3.16 µM, first compound 0.1 µM
[25] = second compound 10 µM, first compound 0.000316 µM
[26] = second compound 10 µM, first compound 0.001 µM
[27] = second compound 10 µM, first compound 0.00316 µM
[28] = second compound 10 µM, first compound 0.01 µM
[29] = second compound 10 µM, first compound 0.0316 µM
[30] = second compound 10 µM, first compound 0.1 µM
[31] = second compound 0.1 µM, first compound 0.00949 µM
[32] = second compound 0.1 µM, first compound 0.03 µM
[33] = second compound 0.1 µM, first compound 0.0949 µM
[34] = second compound 0.1 µM, first compound 0.3 µM
[35] = second compound 0.1 µM, first compound 0.949 µM
[36] = second compound 0.1 µM, first compound 3 µM
[37] = second compound 0.316 µM, first compound 0.00949 µM
[38] = second compound 0.316 µM, first compound 0.03 µM
[39] = second compound 0.316 µM, first compound 0.0949 µM
[40] = second compound 0.316 µM, first compound 0.3 µM
[41] = second compound 0.316 µM, first compound 0.949 µM
[42] = second compound 0.316 µM, first compound 3 µM
[43] = second compound 1 µM, first compound 0.00949 µM
[44] = second compound 1 µM, first compound 0.03 µM
[45] = second compound 1 µM, first compound 0.0949 µM
[46] = second compound 1 µM, first compound 0.3 µM
[47] = second compound 1 µM, first compound 0.949 µM
[48] = second compound 1 µM, first compound 3 µM
[49] = second compound 3.16 µM, first compound 0.00949 µM
[50] = second compound 3.16 µM, first compound 0.03 µM
[51] = second compound 3.16 µM, first compound 0.0949 µM
[52] = second compound 3.16 µM, first compound 0.3 µM
[53] = second compound 3.16 µM, first compound 0.949 µM
[54] = second compound 3.16 µM, first compound 3 µM
[55] = second compound 10 µM, first compound 0.00949 µM
[56] = second compound 10 µM, first compound 0.03 µM
[57] = second compound 10 µM, first compound 0.0949 µM
[58] = second compound 10 µM, first compound 0.3 µM
[59] = second compound 10 µM, first compound 0.949 µM
[60] = second compound 10 µM, first compound 3 µM

CC(C)CC(NC(=O)C(Cc1ccccc1)NC(=O)c1cnccn1)B(O)O (stereo not given) + NC1CC1c1ccc(-c2cccc(O)c2)cc1
IC50 (second compound 0.1 µM): 0.36 nM | IC50 (second compound 0.316 µM): 0.373 nM | IC50 (second compound 1 µM): 0.392 nM | IC50 (second compound 3.16 µM): 0.375 nM | IC50 (second compound 10 µM): < 0.316 nM | viability, T/C [1]: 55.9% | viability, T/C [2]: 3.85% | viability, T/C [3]: 4.59% | viability, T/C [4]: 4.04% | viability, T/C [5]: 1.83% | viability, T/C [6]: 0.7% | viability, T/C [7]: 57.6% | viability, T/C [8]: 4.64% | viability, T/C [9]: 3.15% | viability, T/C [10]: 2.27% | viability, T/C [11]: 1.73% | viability, T/C [12]: 0.55% | viability, T/C [13]: 60.4% | viability, T/C [14]: 4.41% | viability, T/C [15]: 3.18% | viability, T/C [16]: 2.18% | viability, T/C [17]: 1.28% | viability, T/C [18]: 0.5% | viability, T/C [19]: 58.1% | viability, T/C [20]: 3.39% | viability, T/C [21]: 2.47% | viability, T/C [22]: 1.72% | viability, T/C [23]: 1.87% | viability, T/C [24]: 0.31% | viability, T/C [25]: 42.5% | viability, T/C [26]: 2.54% | viability, T/C [27]: 2.01% | viability, T/C [28]: 1.21% | viability, T/C [29]: 0.62% | viability, T/C [30]: 0.38%

CC(C)CC(NC(=O)CNC(=O)c1cc(Cl)ccc1Cl)B1OC(=O)CC(CC(=O)O)(C(=O)O)O1 (stereo not given) + NC1CC1c1ccc(-c2cccc(O)c2)cc1
IC50 (second compound 0.1 µM): 13.6 nM | IC50 (second compound 0.316 µM): 13.4 nM | IC50 (second compound 1 µM): 10.1 nM | IC50 (second compound 3.16 µM): 10.5 nM | IC50 (second compound 10 µM): 10.2 nM | viability, T/C [1]: 99.7% | viability, T/C [2]: 100% | viability, T/C [3]: 97.6% | viability, T/C [4]: 58.7% | viability, T/C [5]: 21.7% | viability, T/C [6]: 4.21% | viability, T/C [7]: 92.7% | viability, T/C [8]: 99.2% | viability, T/C [9]: 92.8% | viability, T/C [10]: 59.9% | viability, T/C [11]: 19% | viability, T/C [12]: 4.26% | viability, T/C [13]: 97.5% | viability, T/C [14]: 106% | viability, T/C [15]: 93.3% | viability, T/C [16]: 48.8% | viability, T/C [17]: 17% | viability, T/C [18]: 4.69% | viability, T/C [19]: 91% | viability, T/C [20]: 109% | viability, T/C [21]: 89.2% | viability, T/C [22]: 49.3% | viability, T/C [23]: 19.2% | viability, T/C [24]: 3.44% | viability, T/C [25]: 105% | viability, T/C [26]: 98.8% | viability, T/C [27]: 84.2% | viability, T/C [28]: 52.9% | viability, T/C [29]: 13.4% | viability, T/C [30]: 2.91%

Nc1ccccc1NC(=O)c1ccc(CNC(=O)OCc2cccnc2)cc1 + NC1CC1c1ccc(-c2cccc(O)c2)cc1
IC50 (second compound 0.1 µM): 57.8 nM | IC50 (second compound 0.316 µM): 63 nM | IC50 (second compound 1 µM): 63.6 nM | IC50 (second compound 3.16 µM): 67.7 nM | IC50 (second compound 10 µM): 104 nM | viability, T/C [31]: 77.6% | viability, T/C [32]: 66.3% | viability, T/C [33]: 37.7% | viability, T/C [34]: 5.54% | viability, T/C [35]: 0.32% | viability, T/C [36]: 0.4% | viability, T/C [37]: 78.8% | viability, T/C [38]: 65.5% | viability, T/C [39]: 42% | viability, T/C [40]: 7.37% | viability, T/C [41]: 0.32% | viability, T/C [42]: 0.32% | viability, T/C [43]: 80.2% | viability, T/C [44]: 63.9% | viability, T/C [45]: 43.9% | viability, T/C [46]: 8.12% | viability, T/C [47]: 1.9% | viability, T/C [48]: 0.59% | viability, T/C [49]: 79.5% | viability, T/C [50]: 70.1% | viability, T/C [51]: 41.9% | viability, T/C [52]: 7.06% | viability, T/C [53]: 0.28% | viability, T/C [54]: 0.39% | viability, T/C [55]: 82.2% | viability, T/C [56]: 70.6% | viability, T/C [57]: 55% | viability, T/C [58]: 10.2% | viability, T/C [59]: 0.92% | viability, T/C [60]: 0.55%

O=C(C=Cc1cccc(S(=O)(=O)Nc2ccccc2)c1)NO + NC1CC1c1ccc(-c2cccc(O)c2)cc1
IC50 (second compound 0.1 µM): 138 nM | IC50 (second compound 0.316 µM): 129 nM | IC50 (second compound 1 µM): 149 nM | IC50 (second compound 3.16 µM): 137 nM | IC50 (second compound 10 µM): 152 nM | viability, T/C [31]: 106% | viability, T/C [32]: 91.2% | viability, T/C [33]: 70.3% | viability, T/C [34]: 9.6% | viability, T/C [35]: 0.22% | viability, T/C [36]: 0.32% | viability, T/C [37]: 96.7% | viability, T/C [38]: 92.6% | viability, T/C [39]: 64.3% | viability, T/C [40]: 10.6% | viability, T/C [41]: 0.24% | viability, T/C [42]: 0.42% | viability, T/C [43]: 112% | viability, T/C [44]: 89.5% | viability, T/C [45]: 75.1% | viability, T/C [46]: 13.9% | viability, T/C [47]: 1.06% | viability, T/C [48]: 0.34% | viability, T/C [49]: 101% | viability, T/C [50]: 101% | viability, T/C [51]: 68.6% | viability, T/C [52]: 10% | viability, T/C [53]: 1.82% | viability, T/C [54]: 0.33% | viability, T/C [55]: 115% | viability, T/C [56]: 92.6% | viability, T/C [57]: 76.3% | viability, T/C [58]: 14.5% | viability, T/C [59]: 0.36% | viability, T/C [60]: 0.36%

O=C(c1cc(Cc2n[nH]c(=O)c3ccccc23)ccc1F)N1CCN(C(=O)C2CC2)CC1 + NC1CC1c1ccc(-c2cccc(O)c2)cc1
IC50 (second compound 0.1 µM): > 10000 nM | IC50 (second compound 0.316 µM): > 10000 nM | IC50 (second compound 1 µM): > 10000 nM | IC50 (second compound 3.16 µM): > 10000 nM | IC50 (second compound 10 µM): > 10000 nM | viability, T/C [5]: 85.5% | viability, T/C [6]: 85.3% | viability, T/C (second compound 0.1 µM, first compound 0.316 µM): 89.4% | viability, T/C (second compound 0.1 µM, first compound 1 µM): 90.4% | viability, T/C (second compound 0.1 µM, first compound 3.16 µM): 87.2% | viability, T/C (second compound 0.1 µM, first compound 10 µM): 92.3% | viability, T/C [11]: 98% | viability, T/C [12]: 90.3% | viability, T/C (second compound 0.316 µM, first compound 0.316 µM): 86.5% | viability, T/C (second compound 0.316 µM, first compound 1 µM): 86.2% | viability, T/C (second compound 0.316 µM, first compound 3.16 µM): 91.7% | viability, T/C (second compound 0.316 µM, first compound 10 µM): 83% | viability, T/C [17]: 90.8% | viability, T/C [18]: 88.1% | viability, T/C (second compound 1 µM, first compound 0.316 µM): 95.8% | viability, T/C (second compound 1 µM, first compound 1 µM): 92.1% | viability, T/C (second compound 1 µM, first compound 3.16 µM): 87.2% | viability, T/C (second compound 1 µM, first compound 10 µM): 78% | viability, T/C [23]: 90.4% | viability, T/C [24]: 99.3% | viability, T/C (second compound 3.16 µM, first compound 0.316 µM): 99.3% | viability, T/C (second compound 3.16 µM, first compound 1 µM): 92.3% | viability, T/C (second compound 3.16 µM, first compound 3.16 µM): 88.9% | viability, T/C (second compound 3.16 µM, first compound 10 µM): 76.7% | viability, T/C [29]: 84.9% | viability, T/C [30]: 93.9% | viability, T/C (second compound 10 µM, first compound 0.316 µM): 88.9% | viability, T/C (second compound 10 µM, first compound 1 µM): 83% | viability, T/C (second compound 10 µM, first compound 3.16 µM): 83% | viability, T/C (second compound 10 µM, first compound 10 µM): 80.9%
